Laboratory results taken from patent US20050159359A1, “Methods and compositions for derepression of IAP-inhibited caspase” (The Burnham Institute, priority 2001, published 2005).
pEC50, pKi: −log10 of the molar value. Blank lines part the entries; values can stand above or below the compound they belong to. Where no end group is shown, it is not given here. [ ]: non-standard residue; d: D form. The star is where a group is joined. Phe(4-Cl) = N[C@@H](Cc1ccc(Cl)cc1)C(=O)O; dPhe(4-Cl) = N[C@H](Cc1ccc(Cl)cc1)C(=O)O; dPhe(4-F) = N[C@H](Cc1ccc(F)cc1)C(=O)O; 2Nal = N[C@@H](Cc1ccc2ccccc2c1)C(=O)O; d2Nal = N[C@H](Cc1ccc2ccccc2c1)C(=O)O; Fmoc = O=C(OCC1c2ccccc2-c2ccccc21)*; 2Thi = N[C@@H](Cc1cccs1)C(=O)O

Columns and labels:
XIAP-inhibited caspase-3 = XIAP-inhibited caspase-3 (Homo sapiens, UniProt P98170); assay: IAP derepression assay: Ac-DEVD-AFC hydrolysis by caspase-3 in presence of GST-XIAP; assay type: biochemical; details: tested at 0.4, 2, 10 and 50 micrograms per milliliter
Experimental: Caspase activity was assayed by release of −7-amino-4-trifluoromethyl-coumarin (AFC) from Ac-DEVD-AFC synthetic peptides using a Molecular Devices Spectromax 340 (see Zhou et al., J. Biol. Chem. 272: 7797-7800 (1997)). […] The ratio of Vmax for hydrolysis of Ac-DEVD-AFC in the presence and absence of the candidate mixture was calculated and used to identify those that contain an agent that derepresses an IAP-inhibited caspase.
Screening of each mixture from the DCR390, TPI1239 or TPI1328 library, respectively, using the above described assay was carried out as follows. Each mixture was aliquoted in a 25 microliter volume and in duplicate to a well of a 96 well microtiter plate. […] Fluorescence of liberated AFC was immediately detected from each well for 30 minutes at 30 second intervals. The Vmax for hydrolysis of AC-DEVD-AFC from each well was measured using the softmax software package.

[1] = tested on: ALVA31 prostate cancer cells; assay: ALVA31 cell viability (XTT dye-reduction and trypan blue dye exclusion); assay type: cell-based; details: IAP antagonist 40 μM or VP-16 100 μM, 24 hrs
Experimental: The in vivo effects of TPI792-33 or TPI792-35, either individually or in combination with the cytotoxic anticancer drug VP-16 (etoposide), on derepression of XIAP-inhibited caspase and viability of ALVA31 cells was determined as follows. ALVA31 prostate cancer cells were seeded onto 96 well plates (10^4 cells/well) in 100 μL RPMI containing 2.5% fetal bovine serum (FBS). […] After another 24 hrs incubation, cell viability was measured by the XTT dye-reduction assay (Roche, Molecular Biochemicals; Indianapolis, Ind.) and trypan blue dye exclusion assay.

caspase-3 and -7 = details: read-out: Ki for inhibition of caspase-3 and -7; reported; cited from earlier work
[2] = tested on: normal bone marrow mononuclear cells; assay: Toxicity to normal bone marrow mononuclear cells, Annexin V flow cytometry; assay type: cell-based; details: same culture conditions as Jurkat killing; 5 μM, 20 hours
Experimental: A comparison of the effects of TPI1396-34 on normal bone marrow cells versus Jurkat leukemia cells was performed as follows. TPI1396-34 (5 μM) was incubated with Jurkat cells or normal bone marrow mononuclear cells (6.25×10^5/mL) in RPMI and 2.5% FBS for 20 hours. After incubation, cells were washed, stained with FITC-conjugated Annexin V antibody and propidium iodide, and fluorescence measured by flow cytometry as described above.

full length XIAP = full length XIAP (Homo sapiens, UniProt P98170); assay: SMAC competition assay: rhodamine labeled SMAC tetrapeptide AVPI and full length XIAP; details: for pEC50: amount of compound necessary to restore Caspase-3 activity to 50% of Vmax; for Relative Potency: fold relative to SMAC AVPI tetrapeptide
HeLa cells = assay: Apoptosis in HeLa cells transfected with XIAP, XIAP mutants or Bcl-XL, Annexin V; assay type: cell-based; details: 5 μM, 20 hours
Experimental: In addition to transfecting the cells with full-length XIAP, analogous assays were performed with HeLa cells transfected with plasmids over-expressing various XIAP mutants. […] The mutant was produced by site-directed mutagenesis to modify positions 148, 219, 223, 314 and 323 to contain alanine. HeLa cells were also transiently transfected with plasmids encoding Bcl-XL, an anti-apoptotic protein that operates upstream of Caspases to suppress Cytochrome C release from mitochondria. HeLa cells (2.5×10^5) were seeded onto six well plates in 2 mL DMEM H21 with 5% FBS. After 24 hrs, cells were transfected (Gene Porter) with plasmids. At 48 hrs after transfection, cells were treated with 5 μM of TPI1396-34 for 20 hours. Both floating and adherent cells were then recovered from cultures, washed, and apoptosis was determined by Annexin V staining using flow cytometry.

[3] = tested on: U937 leukemia cells (U937-Neo, U937-XIAP); assay: Apoptosis in U937 cells transfected with Neo-control or XIAP plasmid; assay type: cell-based; details: U937-XIAP vs U937-Neo, 5 or 8 μM, 20 hours
Experimental: After incubation, cells were washed, stained with FITC-conjugated Annexin V antibody and propidium iodide, and fluorescence measured by flow cytometry as described in Example X.

[4] = Jurkat cell killing, Annexin V / propidium iodide flow cytometry; assay type: cell-based; details: human
Experimental: The following assay was used to test the ability of individual compounds from the TPI1396 and TPI1391 libraries to induce apoptosis of cultured tumor cell lines. Each of the compounds listed in Table IX was individually added to Jurkat leukemia cells (6.25×10^5 cells/mL) in RPMI containing 2.5% FBS at various concentrations for 20 hours. After incubation, cells were washed and stained with FITC-conjugated Annexin V antibody and propidium iodide (Biovision; Mountain View, Calif.). Cells were incubated for 20 minutes at room temperature in the dark and fluorescence was measured by flow cytometry (FACScan, Immunocytometry system; Becton-Dickinson; San Jose, Calif.). Cells staining positive for Annexin V were deemed non-viable.
The TPI1396-34 and TPI1391-28 compounds were further tested as set forth below.

full length XIAP, sequence (P98170 whole entry): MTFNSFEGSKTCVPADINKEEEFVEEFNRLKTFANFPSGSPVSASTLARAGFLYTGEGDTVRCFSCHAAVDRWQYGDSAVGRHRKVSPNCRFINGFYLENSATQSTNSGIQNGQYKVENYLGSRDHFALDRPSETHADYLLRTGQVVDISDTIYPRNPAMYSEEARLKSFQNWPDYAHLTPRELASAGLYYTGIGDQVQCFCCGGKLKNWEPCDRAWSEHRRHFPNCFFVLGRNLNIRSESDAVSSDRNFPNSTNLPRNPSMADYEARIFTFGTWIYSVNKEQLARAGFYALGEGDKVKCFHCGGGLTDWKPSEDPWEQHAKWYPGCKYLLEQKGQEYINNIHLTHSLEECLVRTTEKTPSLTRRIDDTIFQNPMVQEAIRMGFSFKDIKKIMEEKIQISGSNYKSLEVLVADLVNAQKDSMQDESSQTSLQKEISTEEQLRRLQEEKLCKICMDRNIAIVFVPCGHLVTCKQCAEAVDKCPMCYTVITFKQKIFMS
XIAP-inhibited caspase-3, sequence (P98170 whole entry): as above

LC (lowest concentration with a ratio of 2 or higher in the derepression assay) (XIAP-inhibited caspase-3): 2 µg/mL
Compound: (L-ThiAla)-(Lys-εFmoc)-(L-pClPhe)-(pF-D-F) ([2Thi]K(Fmoc)[Phe(4-Cl)][dPhe(4-F)]) [TPI792-22]

Compound: COc1cc([C@@H]2c3cc4c(cc3[C@@H](O[C@@H]3O[C@@H]5CO[C@@H](C)O[C@H]5[C@H](O)[C@H]3O)[C@H]3COC(=O)[C@H]23)OCO4)cc(OC)c1O [VP-16, etoposide]
effect on viability of ALVA31 cells, agent alone [1]: essentially no effect

LC (lowest concentration with a ratio of 2 or higher in the derepression assay) (XIAP-inhibited caspase-3): 2 µg/mL
Compound: (L-ThiAla)-(Lys-εFmoc)-(D-Nal)-(Lys-εFmoc) ([2Thi]K(Fmoc)[d2Nal]K(Fmoc)) [TPI792-19]

Compound: cIAP2: cellular IAP protein, human inhibitor of apoptosis protein
pKi (caspase-3 and -7): 8.00 to 9.70

pEC50 (full length XIAP): 4.48
Compound: COc1ccc(CCN2CCC[C@@H]2CN(C(=O)Nc2ccccc2)[C@@H](CNC(=O)Nc2ccccc2)CC2CCCCC2)cc1 [TPI1396-34]
toxicity to normal bone marrow cells [2]: little toxicity
apoptosis (HeLa cells; HeLa expressing XIAP mutant with mutated SMAC-binding pocket): not protected
apoptosis (HeLa cells; HeLa expressing mutant of only the BIR2 domain): not protected
apoptosis (HeLa cells; HeLa expressing the BIR3 domain): protected
apoptosis (HeLa cells; HeLa over-expressing Bcl-XL): not blocked
apoptosis (HeLa cells; HeLa over-expressing full-length XIAP): protected
apoptosis (HeLa cells; HeLa transfected with control vector): induced apoptosis
effect of XIAP over-expression on apoptosis induction [3]: resistant

LC (lowest concentration with a ratio of 2 or higher in the derepression assay) (XIAP-inhibited caspase-3): 10 µg/mL
Compound: (D-Nal)-(D-pClPhe)-(L-pClPhe)-(Lys-εFmoc) ([d2Nal][dPhe(4-Cl)][Phe(4-Cl)]K(Fmoc)) [TPI792-9]

LC (lowest concentration with a ratio of 2 or higher in the derepression assay) (XIAP-inhibited caspase-3): 2 µg/mL
Compound: (D-Nal)-(Lys-εFmoc)-(L-pClPhe)-(Lys-εFmoc) ([d2Nal]K(Fmoc)[Phe(4-Cl)]K(Fmoc); not fully specified; printed as (D-Nal)-(Lys-εFmoc)-(L-pClPhe)-(Lys-εFmoc)) [TPI792-3]

Relative Potency (full length XIAP): 4.8
Compound: CC(C)C[C@@H]1CN([C@H](CNCc2ccccc2)Cc2ccc3ccccc3c2)C(=O)C(=O)N1CCc1cccc(C(F)(F)F)c1 [TPI1391-28]
toxicity to normal bone marrow cells [2]: little toxicity

LC (lowest concentration with a ratio of 2 or higher in the derepression assay) (XIAP-inhibited caspase-3): 2 µg/mL
Compound: (D-Nal)-(L-Nal)-(D-Lys-εFmoc)-(Lys-εFmoc) ([d2Nal][2Nal][dK](Fmoc)K(Fmoc)) [TPI792-17]

pEC50 (full length XIAP): 4.43
Relative Potency (full length XIAP): 3.4
Compound: CCCCCCCN1C(=O)C(=O)N([C@H](CCCC)CNCc2ccccc2)C[C@@H]1Cc1ccc2ccccc2c1 [TPI1391-21]

LC (lowest concentration with a ratio of 2 or higher in the derepression assay) (XIAP-inhibited caspase-3): 2 µg/mL
Compound: (D-Nal)-(L-Nal)-(L-pClPhe)-(Lys-εFmoc) ([d2Nal][2Nal][Phe(4-Cl)]K(Fmoc); also: 4: D-Lys-εFmoc in Table V) [TPI792-15]

Compound: H-AVPIAQK-NH2 [SMAC, H-Ala-Val-Pro-Ile-Ala-Gln-Lys-NH2]
percent nonviable cells at 20 hours, 50 µM ([4]; 50 μM): ~16%
percent nonviable cells at 20 hours, 100 µM ([4]; 100 μM): 15%

LC (lowest concentration with a ratio of 2 or higher in the derepression assay) (XIAP-inhibited caspase-3): 2 µg/mL
Compound: (L-ThiAla)-(D-pClPhe)-(L-pClPhe)-(Lys-εFmoc) ([2Thi][dPhe(4-Cl)][Phe(4-Cl)]K(Fmoc)) [TPI792-27]
